PubChem BioAssay (NCI)
Several values for one entry are separate records, joined by “and”; a condition that tells them apart may be missing. Identical values can stand only once.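 All cell lines were grown in 96-well plates and treated with compound for 48 hours. The concentration for 50% growth inhibition is given as GI50. The concentration for full growth arrest is given as TGI.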

Columns and labels:
Assay in all cases: DTP human tumour cell line panel, 48 h
[1] = system: MDA-N
[2] = system: HOP-18 NSCLC
[3] = system: RXF-631 renal
[4] = system: DMS 273 small cell lung
[5] = system: T-47D breast
[6] = system: XF 498 CNS

Structure (SMILES)	TGI [4] [µM]	GI50 [5]	TGI [5] [µM]	other results
O=[N+]([O-])c1ccc2c(N=Nc3c(O)ccc4ccccc34)c(O)cc(S(=O)(=O)O)c2c1				GI50 [1]: 45.3 µM; TGI [1]: 50 µM and > 100 µM
CCOC(=O)C12CC1(C(=O)OCC)C1CCC2C1 (stereo not drawn)	> 100			TGI [2]: > 100 µM; TGI [3]: > 100 µM
Cn1cnc([N+](=O)[O-])c1Sc1ncnc2c1ncn2C1OC(CO)C(O)C1O (stereo not drawn)		5.01 µM	> 100	
Cc1ccc(NC(=O)C(=O)Cc2nc3ccccc3o2)c(C)c1	> 100			TGI [3]: > 100 µM; TGI [6]: > 100 µM
O=Cc1coc2ccccc2c1=O			> 100	TGI [1]: 52.3 µM
COc1ccc(C(=O)C=C2NCCN2)cc1	> 100			TGI [2]: > 100 µM
Cc1cc(C)nc(NS(=O)(=O)c2ccc(NC(=O)c3cccc4cc5ccccc5nc34)cc2)n1	> 100			TGI [3]: > 100 µM; TGI [6]: 98.2 µM
CCNCCNc1cc(-c2ccc(F)cc2)c(C#N)c2nc3ccccc3n12		2.26 µM	4.63	
COc1ccc(/C=C(\C#N)c2cc3ccccc3n2C)cc1		0.389 µM	> 100	
C#Cc1ccc(NC(=O)c2ccc(/C=C/C(=O)c3nccn3C)cc2)cc1		0.521 µM	2.44	
CCNCC(O)c1ccc(N)c([N+](=O)[O-])c1 (stereo not drawn)			> 100	TGI [1]: > 100 µM
Fc1ccc(-c2ncn(C3CCNCC3)c2-c2ccnc(Oc3cccc(F)c3)n2)cc1		13.8 µM	> 25	
O=C1C(c2ccccc2)=C(c2ccccc2)C(c2ccc(CCCCCCc3ccc(C4=C(c5ccccc5)C(=O)C(c5ccccc5)=C4c4ccccc4)cc3)cc2)=C1c1ccccc1	> 100			TGI [3]: > 100 µM
C[Se]C(=O)CC1=C2C=C(F)C=CC2/C(=C\c2ccc(S(C)=O)cc2)C1C (stereo not drawn)		2.94 µM	> 34	
COc1ccc(NC(=O)C(=O)C2NC(=S)NC2=O)c(OC)c1 (stereo not drawn)	> 100			TGI [3]: > 100 µM
O=[As](O)(O)c1ccc(Cc2ccc([As](=O)(O)O)cc2)cc1			1.87	TGI [1]: 1.65 µM
Cn1ccnc1C(=O)/C=C/c1ccc(C(=O)Nc2nc3ccccc3[nH]2)cc1		3.37 µM	> 25	
N#Cc1nc(-c2ccccc2)oc1S(=O)(=O)N1CCOCC1		1.78 µM	3.84	
CC1OC(O)C(O)C(O)C1O (stereo not drawn)			> 100	TGI [1]: > 100 µM
FC(F)(F)c1ccc(-c2cnc(Br)nc2NC2CCCCCC2)cc1		19.6 µM	> 100	

Structure (SMILES)	TGI [4] [µM]	GI50 [5]	TGI [5] [µM]	other results
Cc1ccc(Nc2ccc(Nc3ccc(C)cc3)c3c2C(=O)c2c(O)ccc(O)c2C3=O)cc1	> 100			TGI [6]: > 100 µM
O=[N+]([O-])c1ccccc1C1N2CCCCC2[C@@H]2c3[nH]c4ccccc4c3CCN12 (stereo partly drawn)	23.4			TGI [2]: > 100 µM; TGI [3]: 32.8 µM; TGI [6]: 30.6 µM
C[C@H]1[C@@H](OCC(CO[C@H]2O[C@@H]3O[C@@]4(C)CC[C@H]5[C@H](C)CC[C@@H]([C@H]2C)[C@@]35OO4)=NOCC(=O)O)OC2O[C@@]3(C)CC[C@H]4[C@H](C)CC[C@@H]1[C@@]24OO3 (stereo partly drawn)		< 0.01 µM	0.331	
CCS/C(Nc1ccccc1)=C(\C#N)C(=O)Nc1ccc(OC)cc1		4.08 µM	> 100	
Cc1nc(C(N)=S)sc1C(=O)/C=C/c1cccc(O)c1	> 100			TGI [2]: > 100 µM; TGI [3]: > 100 µM
COC(=O)C1=C(C(=O)OC)C2(C(=O)OC)OC1(OC)C(C1(C(=O)OC)C(C(=O)OC)=C1C(=O)OC)=C2C(=O)OC (stereo not drawn)	> 100			TGI [2]: > 100 µM; TGI [6]: > 100 µM
Fc1ccccc1C1CC(C(c2ccccc2)c2ccccc2)=Nc2ccccc2S1 (stereo not drawn)	20.9			TGI [2]: 31.4 µM; TGI [3]: 27.2 µM; TGI [6]: 27.1 µM
COC(=O)C1(Cc2cccc(Cl)c2)CCCCCCN1C(=O)c1ccccc1 (stereo not drawn)			37.4	TGI [1]: 30.4 µM
CC#CC(=O)N1CCC[C@H]1c1nc(-c2ccc(C(=O)Nc3ccccn3)cc2)c2c(N)nccn12		10.1 µM	> 100	
CC(=O)N1CC(F)(F)c2c(Sc3ncc(N4CCC5(CC4)COC[C@H]5N)nc3N)cccc21		17.6 µM	> 100	
CCCCCCCCCC(=O)CC(=O)c1c(O)cccc1O	39.1			TGI [2]: 93.6 µM; TGI [6]: 40 µM
C=C(C)[C@H]1CC/C(C)=C/CCC(C)C(=O)CC/C(CO)=C\[C@@H]1O (stereo partly drawn)		> 100 µM	> 100	
COC(=O)CCC1=C(C)c2cc3[n-]c(cc4nc(cc5[n-]c(cc1n2)c(CCC(=O)OC)c5C)C=C4C)cc3C.[Cd+2]		2.47 µM	6.95	
CCN(CC)CCCNC(=O)Cc1ccccc1Nc1c(Cl)cccc1Cl	28.1			TGI [6]: 20.8 µM
C=C(C)C1/C=C(/C(C)C)CC[C@]2(C)O[C@@H]2CC[C@H](C)CC1=O (stereo partly drawn)		76.7 µM	> 100	
C/C(=N\Nc1ccc([N+](=O)[O-])cc1)C(=O)N(C)Nc1ccccc1	> 100			TGI [2]: > 100 µM; TGI [6]: > 100 µM
CN(O)C(=O)Cc1ccccc1	> 100			TGI [6]: > 100 µM
COC1=C(OC)CCC(/C(C#N)=C/c2ccc(OC)c(OC)c2)=C1	> 100			TGI [2]: > 100 µM; TGI [3]: > 100 µM
COc1ccc(C(Nc2ncccn2)c2cc3c(cc2O)OCO3)cc1 (stereo not drawn)			28	TGI [1]: 42.3 µM
Oc1ccc2ccccc2c1N=Nc1ccccc1		22.5 µM and > 100 µM	> 100	TGI [1]: > 100 µM
